What all share (type): functional
For one experiment, the system named is Staphylococcus aureus. Nature of the experiment: Antibacterial activity against Staphylococcus aureus assessed as reduction in microbial growth incubated for 24 hrs by microdilution method. (In general: In broth dilution the organism is exposed to a series of concentrations in liquid medium.)
The subject of a further experiment is Escherichia coli. Nature of the experiment: Antibacterial activity against Escherichia coli assessed as reduction in microbial growth incubated for 24 hrs by microdilution method.
In a further experiment the test system is Candida albicans. Description: Antifungal activity against Candida albicans assessed as reduction in fungal growth incubated for 24 hrs by microdilution method.

Converted amounts (≈) assume the structure as drawn.

On to `C=C(CO)[C@H]1Cc2c(ccc3c(=O)c4c(oc23)COc2cc(OC)c(OC)cc2-4)O1`, for which the values for the MIC in the experiment on Staphylococcus aureus, in the experiment on Escherichia coli and with Candida albicans were 612 µM, > 1000 µM and > 1000 µM, respectively.
`CC(C)=CCC[C@]1(C)C=Cc2cc([C@H]3Oc4cc(O)ccc4C(=O)[C@@H]3O)cc(O)c2O1`: the minimum inhibitory concentration (MIC) worked out at 9.2 µM in the experiment on Staphylococcus aureus, 296 µM with Escherichia coli and 74.1 µM (≈ 31.3 µg/mL) in the experiment on Candida albicans.
In the case of `CC(C)=CCC[C@]1(C)C=Cc2c(ccc3c2O[C@H](c2ccc(O)c(O)c2)[C@@H](O)C3=O)O1`, the MIC with Staphylococcus aureus is 36.9 µM; in the experiment with Escherichia coli it was > 1000 µM; with Candida albicans it was 74.1 µM (≈ 31.3 µg/mL).
With `COc1ccc(C2COc3c(ccc4c3C=CC(C)(CCC=C(C)C)O4)C2)c(O)c1O` (configuration not stated), the MIC in the experiment on Staphylococcus aureus was 36.9 µM; in the experiment with Escherichia coli, 296 µM; with Candida albicans, 36.9 µM (≈ 15.6 µg/mL).
As to `CC(C)=CCC/C(C)=C/Cc1c(O)ccc2c(=O)c(O)c(-c3ccc(O)c(O)c3)oc12`, the minimal inhibitory concentration (MIC) with Staphylococcus aureus, in the experiment with Escherichia coli and in the experiment with Candida albicans was > 1000 µM throughout.
For `COc1ccc([C@@H]2COc3c(ccc(O)c3C/C=C(\C)CCC=C(C)C)C2)c(O)c1O`, the MIC in the experiment with Staphylococcus aureus was found to be 36.7 µM; in the experiment with Escherichia coli it was 294 µM; in the experiment with Candida albicans, 73.7 µM (≈ 31.3 µg/mL).
The like results for `CC(C)=CCC/C(C)=C/Cc1cc([C@H]2Oc3cc(O)ccc3C(=O)[C@@H]2O)cc(O)c1O` were, in that order, 36.7 µM, 294 µM and 73.7 µM (≈ 31.3 µg/mL).
The like results for `C=C[C@@](C)(CCC=C(C)C)c1cc([C@@H]2COc3cc(O)ccc3C2)c(O)c(O)c1OC` were, in that order, 18.4 µM, > 1000 µM and 73.7 µM (≈ 31.3 µg/mL).
In the case of `O=C(CC(O)c1ccc(O)cc1)c1ccc(O)cc1O` (configuration not stated), the minimal inhibitory concentration (MIC) in the experiment with Staphylococcus aureus is 14.2 µM; in the experiment on Escherichia coli it was > 1000 µM; with Candida albicans it was 56.9 µM (≈ 15.6 µg/mL).
As for `CC(=O)O[C@H]1CC[C@]2(C)[C@H]3CC=C4[C@@H]5CC(C)(C)CC[C@]5(C(=O)O)CC[C@@]4(C)[C@]3(C)CC[C@H]2C1(C)C` [ACETYL OLEANOLIC ACID], the MIC in the experiment on Staphylococcus aureus was 251 µM; in the experiment with Escherichia coli, > 1000 µM; in the experiment with Candida albicans it was 251 µM (≈ 125 µg/mL).
Take `C=C(CO)[C@H]1Cc2c(ccc3c2O[C@@H]2COc4cc(OC)c(OC)cc4[C@]2(O)C3=O)O1` [DABINOL]: the MIC with Staphylococcus aureus is 293 µM; with Escherichia coli, > 1000 µM; in the experiment with Candida albicans it was 147 µM (≈ 62.5 µg/mL).
For the compound `O=C(/C=C/c1ccc(O)cc1)c1ccc(O)cc1O` [ISOLIQUIRITIGENIN], the MIC in the experiment on Staphylococcus aureus was 488 µM; in the experiment with Escherichia coli it was > 1000 µM; in the experiment on Candida albicans, > 1000 µM.
As to `CC(C)=CCCC1(C)C=Cc2c(ccc(C(=O)/C=C/c3ccc(O)cc3)c2O)O1` (configuration not stated) [LESPEOL], the MIC turned out to be 40 µM in the experiment on Staphylococcus aureus, 64 µM in the experiment on Escherichia coli and 40 µM (≈ 15.6 µg/mL) in the experiment with Candida albicans.
For the compound `CCCCCCCCN=c1ccn(CCCCCCCCCCn2ccc(=NCCCCCCCC)cc2)cc1` [OCTENIDINE], the MIC was determined as 0.5 µM in the experiment on Staphylococcus aureus, 0.5 µM in the experiment on Escherichia coli and 0.5 µM (≈ 0.275 µg/mL) in the experiment with Candida albicans.

A word on the MIC: it is the smallest concentration in the dilution series that meets the test's criterion for growth inhibition.

Source of the values: ChEMBL document CHEMBL5579894, “Antimicrobial Dihydroflavonols and Isoflavans Isolated from the Root Bark of Dalbergia gloveri” (2024).
